The values that follow come from publication PMC10426190 (Breast Cancer Research : BCR, 2023).

In general, IC50 refers to the point on the concentration scale where inhibition reaches its midpoint. The term TGI denotes how far tumour growth fell short of that in controls. Low readings indicate a weaker effect on the tumour, high ones a stronger effect on the tumour.

One data set relates to MCF7 ESR1 D538G cells. As to the kind of experiment: Viability assay (CellTiter-Glo, 7 days), MCF7 D538G. The data set is classed as cell-based, human. Particulars: MCF-8 D538G. How it is done: (§1) Trypsinized cells were dispensed into 384-well plates in culture media and after overnight incubation cells were treated with compounds for 7 days. Cell viability was assessed using CellTiter-Glo (Promega) according to the manufacturer’s protocol and relative luminescence units (RLU) were measured using an Envision Multilabel Reader (Perkin Elmer). […] IC50 and Imax were analyzed with IDBS XLfit.
(§2) Statistical and graphical presentations were performed using IDBS XLfit and GraphPad Prism 9. For cell proliferation assays, the IC50 was calculated by fitting a dose–response curve using a nonlinear regression model with a log(inhibitor) vs response curve fit. […] P-values < 0.05 were considered statistically significant.
In general terms: ATP-based viability assays read luminescence as a measure of living cells.

Data set [1] has as its system intracranial MCF-7 tumors. As to the kind of experiment: Intracranial MCF-7 tumor model. The format is in vivo, mouse. The method, then:
Female NPG mice were used for the intracranial MCF-7 tumor model. Three days before tumor cell implantation, estrogen pellets (0.72 mg, 17β-Estradiol, 60-day release, Innovative Research of America, Sarasota, FL, USA) were implanted subcutaneously. Each mouse was intracranially injected with 2 × 10^6 MCF-7 (ATCC) cells. […] Survival of mice was evaluated until Day 60. Mice were euthanized with weight loss exceeding 20% or moribund. On Day 60, all the mice remaining alive were euthanized. Before euthanasia, the mice were perfused with 4% paraformaldehyde and the brain tissues were collected for H&E staining using A[…] (Leica, Wetzlar, Germany).
as §2

A further data set has as its system T47D subcutaneous tumors. As to the kind of experiment: T47D subcutaneous xenograft mouse model. The data set is classed as in vivo. The settings on record: T47D sc, 250 mg/kg subcutaneous once a week. How it is done: (§3) Female Balb/c nude mice were used for MCF-7 and T47D tumor subcutaneous xenograft studies. At least one day before tumor cell implantation, estrogen pellets (0.18 mg, 17β-Estradiol, 60-day release, Innovative Research of America, Sarasota, FL, USA) were implanted subcutaneously. Each mouse was subcutaneously injected with 1 × 10^7 MCF-7 (ECACC) or T47D cells in the right flank, and tumor growth was monitored. The long diameter (a) and the short diameter (b) of the tumor were measured using a caliper, and the tumor volume was calculated using the following formula: V = 0.5 × a × b^2. […] Tumor volumes were evaluated twice per week. Treatment tolerability was assessed by body weight measurements and frequent observation for clinical signs of treatment-related adverse effects.
as §2

Data set [2] concerns advanced HR + /HER2- breast cancer. The settings on record: cited from earlier work.
Another data set has as its system advanced breast cancer. Particulars: cited from earlier work; for PFS: second-line.
The next data set deals with MCF-7 WT cells. Briefly: Viability assay (CellTiter-Glo, 7 days), MCF-7 WT. The data set is classed as cell-based, human. The method, then:
as §1, §2

Data set [3] relates to MCF-7 subcutaneous tumors. Briefly: MCF-7 subcutaneous xenograft mouse model. The data set is classed as in vivo. The settings on record: MCF7 sc, 250 mg/kg subcutaneous once a week. The method, then:
as §3, §2

For a further data set, the target named is T1, ERα Y537S mutant (Homo sapiens, UniProt P03372, Y537S).
T1 construct: MCF-7 wild type and Y537S mutant cells were seeded; host or cells: MCF7 expressing ER Y537S
T1 sequence (P03372 1-595 Y537S): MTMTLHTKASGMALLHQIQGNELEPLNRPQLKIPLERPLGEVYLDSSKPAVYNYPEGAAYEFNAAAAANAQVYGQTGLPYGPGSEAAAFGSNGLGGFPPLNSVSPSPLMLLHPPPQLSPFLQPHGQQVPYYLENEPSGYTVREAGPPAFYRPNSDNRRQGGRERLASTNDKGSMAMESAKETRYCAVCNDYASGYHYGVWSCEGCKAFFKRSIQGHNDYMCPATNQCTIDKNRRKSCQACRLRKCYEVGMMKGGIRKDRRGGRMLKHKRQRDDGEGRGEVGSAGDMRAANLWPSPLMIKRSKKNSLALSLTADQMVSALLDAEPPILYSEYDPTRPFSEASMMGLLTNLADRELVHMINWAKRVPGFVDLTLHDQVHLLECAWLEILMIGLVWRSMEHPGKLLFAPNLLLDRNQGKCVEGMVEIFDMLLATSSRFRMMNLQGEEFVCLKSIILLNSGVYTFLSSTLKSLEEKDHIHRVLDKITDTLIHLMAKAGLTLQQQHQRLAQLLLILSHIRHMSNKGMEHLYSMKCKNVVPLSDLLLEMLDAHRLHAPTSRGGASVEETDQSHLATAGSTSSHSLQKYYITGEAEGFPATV
As to the kind of experiment: ERα degradation assay, In-Cell Western, MCF-7 Y537S. The format is cell-based. Particulars: 24 h. How it is done:
MCF-7 wild type and Y537S mutant cells were seeded at a density of 5000 cells per well into flat clear bottom tissue cultured-treated 384-well plates (Greiner) in culture media and after overnight incubation cells were treated with compounds for 24 h. Then plates were fixed with 4% formaldehyde, permeabilized with ice-cold methanol, and blocked with Odyssey Blocking Buffer (LI-COR). The fixed cells were incubated with rabbit anti- ERα antibody (CST#8644S) and mouse anti-GAPDH antibody (Abcam #ab8245), washed and stained with IRDye 800 Goat anti-Rabbit IgG (Licor#926-32211) and IRDye 680 Goat anti-Mouse IgG (Licor#926-68070). ERα levels were quantitated using Sapphire RGBNIR (Azure), the acumen eX3 imaging system. […] IC50 and Emax were analyzed with IDBS XLfit.

Data set [4] has as its system ER + breast cancer cell lines. As to the kind of experiment: Proliferation assay across ER-positive cell panel. The format is cell-based, human. The settings on record: 7 days. How it is done: as §1
MCF7 cells were seeded in a 384-well plate and linear-dilution compounds were administrated in duplicate for each treatment. After incubation for 24 h, Cells in the assay pate were treated as described in methods. ERα levels were quantified by immunofluorescence assay. […] Data are given as mean ± SEM. b The maximal ERα degradation across an ER-positive cell panel was evaluated in an In-cell Western assay. Cells were dispended into 96-well plates and incubated for 24 h with compounds (100 nM) treatment. […] Cells were seeded in 384-well plates and treated with linear-dilution compounds for 7 days of incubation. Cell viability was assessed using CellTiter-Glo. Cell growth inhibition is presented as a percentage of CellTiterGlo activity relative to the vehicle control. […] WT (e) and ER. Y537S cells (f). […] Then cells in each well were collected and the targeting proteins in lysate supernatant were detected by WB

Read-outs that look alike come from different tables or passages of the source.

Take `C[C@]12CC[C@@H]3c4ccc(O)cc4C[C@@H](CCCCCCCCC[S+]([O-])CCCC(F)(F)C(F)(F)F)[C@H]3[C@@H]1CC[C@@H]2O` (stereo partly shown) [Fulvestrant]: the IC50 was 11.1 nM with MCF7 ESR1 D538G cells (Homo sapiens, MCF7, 168 h) and 0.4 nM with MCF-7 WT cells (Homo sapiens, MCF7, 168 h). Also, the “Viability assay Emax [% Ful.]” value is reported as 106.1 % Ful in the data set on MCF7 ESR1 D538G cells and 97.88 % Ful in the data set with MCF-7 WT cells. The “Viability assay Emax [% Veh.]” value in the data set on MCF7 ESR1 D538G cells turned out to be 68.57 % Veh; in the data set on MCF-7 WT cells, 49.60 % Veh. The median survival time in data set [1] (250 mg/kg subcutaneous once a week) was found to be 27 days. Also, in [1] (Fulvestrant 250 mg/kg, SCR-6852 3 mg/kg), the “tumor cell infiltration in brain tissues (H&E)” value is “significant tumor cells infiltration”. Further, the TGI in the data set on T47D subcutaneous tumors is listed as 48.35%; in [3] it was 28.84%. In addition, the “median OS” value in data set [2] was 29.7 months. Besides, the figures for the PFS (in data set [2] (progressed on prior ET ref 45); with advanced breast cancer (higher value of 6.5 vs. 5.5 (Fulvestrant HD 500 mg) ref 16); in the data set with advanced breast cancer (lower value of 6.5 vs. 5.5 (250 mg dose regimen) ref 16)) were 4.6 months, 6.5 months and 5.5 months, respectively. In addition, the OS with advanced breast cancer (250 mg dose regimen ref 16) was 22.3 months; with advanced breast cancer (Fulvestrant HD 500 mg ref 16) it was 26.4 months. Also, the “ERα degradation assay Dmax [% Ful.]” value on ERα Y537S mutant stood at 87.09 % Ful. Also, the “ERα degradation assay Dmax [% Veh.]” value on ERα Y537S mutant was found to be 26.38 % Veh.
For the molecule `CC/C(=C(\c1ccc(O)cc1)c1ccc(OCCN(C)C)cc1)c1ccccc1` [4-OH-tamoxifen], the “anti-proliferation potency in ER + cell panel” value in data set [4] is given as “less potent than all tested SERDs”.
